The numbers were not newly measured in patent EP0721734A1, “PESTICIDE COMPOSITION” (NIPPON SODA CO., LTD., priority 1993, dated 1995), which cites them from elsewhere.

Consider `CCN(Cc1ccc(Cl)nc1)C(=C[N+](=O)[O-])NC` [2-methylamino-2-[N-ethyl-(2-chloro-5-pyridyl)methylamino]-nitoroethylene], for which the water solubility result is recorded as “up to 600 g/l”. For the compound `CCCC(Cn1cncn1)c1ccc(Cl)cc1Cl` (stereo not drawn) [Penconasole], the water solubility was 70 ppm. As to `CC(=NC#N)N(C)Cc1ccc(Cl)nc1` [active substance-1, N^1-[(2-chloro-5-pyridyl)methyl]-N^2-cyano-N^1-methylacetamidine], the water solubility is on record as 3,700 ppm. Take `CCc1cccc(C)c1N(C(=O)CCl)C(C)COC` (stereo not drawn) [Metolachlor]: the water solubility is 530 ppm.

As for `CCSCc1ccccc1OC(=O)NC` [Ethiophencalb], the water solubility is 1,900 ppm. In the case of `CCO[PH](=O)[O-].CCO[PH](=O)[O-].CCO[PH](=O)[O-].[Al+3]` [Phosethyl-Alminium], the water solubility was 120 g/L.
